For series [1], the system named is switchgrass, miscanthus, giant reed, reed canarygrass, blue stem, erianthus, napier grass, and spartina. As to the kind of experiment: Test Example 1: pre-emergence application, phytotoxicity on biomass crops. On the procedure: Pre-emergence application in switchgrass, miscanthus, giant reed, reed canarygrass, blue stem, erianthus, napier grass and spartina
A field soil is filled into a 32 cm×22 cm plastic case having a depth of 8 cm, seeds of switchgrass, miscanthus, giant reed, reed canarygrass, blue stem, erianthus, napier grass, spartina, Setaria faberi, Amaranthus retroflexus, Chenepodium album, and Stellaria media are seeded thereon, and the seeds are covered with about 0.5 cm of a soil.

The subject of series [2] is Setaria faberi, Amaranthus retroflexus, Chenepodium album, and Stellaria media. As to the kind of experiment: Test Example 1: pre-emergence application, herbicidal activity. Type of series: in vivo. Particulars: pre-emergence application to soil surface, 25 to 1000 g per 1 hectare, greenhouse, evaluated 21 days after treatment.
Series [3] concerns Echinochloa crus-galli, Digitaria adscendens, Chenopodium album and Abutilon theophrasti. As to the kind of experiment: Test Example 2: post-emergence application, herbicidal activity. In kind it is in vivo. The note with it: post-emergence application after 2 weeks of cultivation, 25 to 1000 g per 1 hectare, greenhouse, evaluated 21 days after treatment.
Procedure: (§1) A field soil is filled into a 32 cm×22 cm plastic case having a depth of 8 cm, seeds of switchgrass, miscanthus, giant reed, reed canarygrass, blue stem, erianthus, napier grass, spartina, Echinochloa crus-galli, Digitaria adscendens, Chenopodium album and Abutilon theophrasti are seeded thereon, and the seeds are covered with about 0.5 cm of a soil, and cultivated in a greenhouse for 2 weeks.
Series [4] concerns switchgrass, miscanthus, giant reed, reed canarygrass, blue stem, erianthus, napier grass, and spartina. As to the kind of experiment: Test Example 2: post-emergence application, phytotoxicity on biomass crops. In kind it is in vivo.
Procedure: as §1
Setting [5] is: pre-emergence application to soil surface, 25 to 1000 g per 1 hectare, greenhouse, evaluated 21 days after treatment.
The mark [6] stands for this setting: post-emergence application after 2 weeks of cultivation, 25 to 1000 g per 1 hectare, greenhouse, evaluated 21 days after treatment.

In the case of `CS(=O)(=O)NC(=O)c1cc(Oc2ccc(C(F)(F)F)cc2Cl)ccc1[N+](=O)[O-]` [fomesafen], the phytotoxicity entry in series [1] (setting [5]) is on record as “without causing significant phytotoxicity”. Besides, the herbicidal activity result in series [2] and in series [3] was “high herbicidal activity” in each case.

For the molecule `C#CCN1C(=O)COc2cc(F)c(N3C(=O)C4=C(CCCC4)C3=O)cc21` [flumioxazin], the results for the phytotoxicity result in series [4] (setting [6]) and in series [1] (setting [5]) were “without causing a significant phytotoxicity” and “without causing significant phytotoxicity”, respectively. Also, the herbicidal activity result in series [2] and in series [3] was “high herbicidal activity” throughout.

As for `C#CCN1C(=O)COc2cc(F)c(-n3c(=O)n(C)c(=S)n(C)c3=O)cc21` [compound represented by the formula (I)], the phytotoxicity entry in series [4] (in vivo) is on record as “without causing a significant phytotoxicity”; in series [1] (in vivo), “without causing significant phytotoxicity”. Besides, the herbicidal activity entry in series [2] and in series [3] was “high herbicidal activity” throughout.

`CC(C)N(C)S(=O)(=O)NC(=O)c1cc(-n2c(=O)cc(C(F)(F)F)n(C)c2=O)c(F)cc1Cl` [saflufenacil]: the phytotoxicity entry in series [4] (setting [6]) is reported as “without causing a significant phytotoxicity”; in series [1] (setting [5]), “without causing significant phytotoxicity”. The herbicidal activity entry in series [2] and in series [3] was “high herbicidal activity” throughout.

For `CCOc1cc(Oc2ccc(C(F)(F)F)cc2Cl)ccc1[N+](=O)[O-]` [oxyfluorfen], the phytotoxicity result in series [4] (setting [6]) is given as “without causing a significant phytotoxicity”; in series [1] (setting [5]), “without causing significant phytotoxicity”. In addition, the herbicidal activity entry in series [2] and in series [3] was “high herbicidal activity” in each case.

Consider `Cc1nn(-c2cc(NS(C)(=O)=O)c(Cl)cc2Cl)c(=O)n1C(F)F` [sulfentrazone], for which the figures for the phytotoxicity entry in series [4] (in vivo) and in series [1] (in vivo) were “without causing a significant phytotoxicity” and “without causing significant phytotoxicity”, respectively. Moreover, the herbicidal activity entry in series [2] and in series [3] was “high herbicidal activity” in each case.

The record behind these values is patent US20130157860A1, “METHOD OF CONTROLLING A WEED IN A GRAMINEOUS BIOMASS CROP” (SUMITOMO CHEMICAL COMPANY, LIMITED, priority 2011, published 2013).
